Data on 1 compound can be found in patent US9724537B2, “Abnormal electrical conduction blocking apparatus using photodynamic therapy (PDT)” (Keio University, priority 2006, dated 2017).

For this assay, the system named is isolated right ventricular free wall of a Wistar rat. Nature of the assay: PDT electrical conduction block experiment in ex vivo system. As to the method: As materials, spread samples of an isolated right ventricular free wall of a Wistar rat (male, 8 to 10 weeks old) were used. The length (L) and the thickness (d) of sample photoradiation lines in each experiment are as follows.
Experiment 1: L=0.9 cm, d=1.5 mm
Experiment 2: L=0.76 cm, d=1.5 mm
Experiment 3: L=1.2 cm, d=1.4 mm
Experiment 4: L=0.88 cm, d=1.4 mm
Tyrode's solution (95% O2 and 5% CO2 gases were passed through, and the temperature was maintained at 37° C. in a constant-temperature apparatus) was used as a perfusion fluid.
Immediately after isolation, the heart was dipped in the perfusion fluid heated at about 37° C., and a right ventricular tissue was ablated. The ablated tissue was fixed on the silicon floor of a tissue bath with a 0.2 mmφ tungsten wire, and then the perfusion fluid was allowed to flow.
Immediately after rats were allowed to inhale vaporized diethyl ether, heparin and Nembutal (0.2 and 0.5 ml, respectively) were administered intraperitoneally, and approx. 0.5 ml of talaporfin sodium (Laserphyrin [registered trade name] Meiji Seika Kaisha, Ltd.) dissolved in physiological saline was intravenously injected from the vena cava of the rat lower extremity. After the heart was isolated, a right ventricular tissue was ablated in a normal Tyrode's solution and fixed in a tissue bath. Then, Tyrode's solutions in which talaporfin sodium was dissolved at various concentrations (see Reference Example 1 described later, set assuming a half of the plasma concentration at each dose and interval as blood concentration) (these are referred to as photosensitizer solutions), and loaded by circulatory perfusion for a period equal to time required from the heart isolation to bath fixation (approx. 10 min), and laser irradiation was performed with surface perfusion. The photosensitizer dose (D), the interval to heart isolation, and the concentration of the photosensitizer solution (c) in each experimental example were as follows.
Experiment 1: D=5 mg/kg; interval, 30 min; c=30 μg/ml
Experiment 2: D=5 mg/kg; interval, 60 min; c=20 μg/ml
Experiment 3: D=2 mg/kg; interval, 30 min; c=12 μg/ml
Experiment 4: D=2 mg/kg; interval, 60 min; c=8 μg/ml
A continuous semiconductor laser beam (SONY, peak wavelength, 670 band) was transmitted with a quartz fiber (core diameter, 800 μm), and the fiber was used virtually in contact with the tissue surface with an output at the end thereof being 5 mW. Laser irradiation was performed while reciprocating the fiber horizontally across the tissue over approx. 1 cm on the tissue surface. The laser irradiation time (T) and the total dose of laser irradiation (It) in each experimental example were as follows.
Experiment 1: T=60 s, It=4.2 J/cm^2
Experiment 2: T=80 s, It=6.6 J/cm^2
Experiment 3: T=267 s, It=14 J/cm^2
Experiment 4: T=500 s, It=36 J/cm^2
0.8-mA electrical stimulus was applied from a bipolar electrode (Unique Medical Co., Ltd., obtained by twining 0.2-mmφ silver chloride wires) with a stimulator and an isolator (Nihon Kohden Corporation) every 300 ms, and two bipolar electrodes for measuring a potential (Unique Medical Co., Ltd., 0.25 mmφ stainless) were placed on the tissue surface to measure a extracellular potential (FIG. 24). […] A signal was led to a bioamplifier (Physio-Tech Co., Ltd., DAM50) and recorded and analyzed using a biosignal recording/analyzing apparatus (AD Instrumens) (FIG. 25). FIG. 25 is a schematic view showing an ex vivo experimental system.
FIGS. 26 to 29 show extracellular potentials before and after PDT a led potential in each experiment. In FIGS. 26 to 29, the upper line (red line) and the lower line (blue line) in one graph represent potentials in X and Y in FIG. 24, respectively. The vertical axis represents voltage.

Where [1] appears, read: Experiment 1: 5 mg/kg i.v., interval 30 min, 30 μg/ml, 4.2 J/cm^2.
[2] abbreviates: Experiment 2: 5 mg/kg i.v., interval 60 min, 20 μg/ml, 6.6 J/cm^2.
[3] abbreviates: Experiment 3: 2 mg/kg i.v., interval 30 min, 12 μg/ml, 14 J/cm^2.
The mark [4] stands for this setting: Experiment 4: 2 mg/kg i.v., interval 60 min, 8 μg/ml, 36 J/cm^2.

Each structure is given as a SMILES string.

Turning to `C=Cc1c(C)c2cc3nc(c(CC(=O)N[C@@H](CC(=O)O)C(=O)O)c4[nH]c(cc5nc(cc1[nH]2)C(C)=C5CC)c(C)c4C(=O)O)[C@@H](CCC(=O)O)[C@@H]3C` [talaporfin sodium, mono-L-aspartyl chlorine 6], the “electrical conduction block after PDT” value reads like this: under setting [1], “an electrical conduction block occurred after PDT”; under setting [2], “an electrical conduction block occurred after PDT”; under setting [3], “an electrical conduction block occurred after PDT”; under setting [4], “an electrical conduction block occurred after PDT”. For the same compound, the “time the conduction block state was maintained” value reads like this: under setting [1], 3 h; under setting [2], 2 h; under setting [3], 3 h; under setting [4], 3 h.
